Laboratory results taken from US20220168310A1, “INHIBITION OF ADENOVIRUS WITH FILOCICLOVIR” (Microbiotix, Inc., priority 2019, published 2022).
“Also recorded” adds a separate entry of the source.

Experiments:
[1] = test system: Adenovirus 5 (AdV5); assay: Cytopathic effects (CPE) reduction assay, AdV5 in HFF cells, 384-well; type: cell-based, human adenovirus
Method: Antiviral and cytotoxicity data were obtained in a series of three to five separate experiments for each virus to provide an accurate estimate of antiviral activity and statistical data. Each assay included positive and negative control compounds as well as infected and uninfected controls to ensure the integrity of the experiment.
The CPE reduction assays were performed in monolayers of human foreskin fibroblast (HFF) cells (5000/well) in 384-well plates in assay media consisting of MEM with Earle's salts, 2% FBS and standard concentrations of L-glutamine, penicillin and gentamycin. 5000 cells were seeded in 384-well microtiter plates and incubated at 37° C. in a humidified 5% CO2 incubator for 24 hours to allow for formation of confluent monolayers.
Cell monolayers were infected at a multiplicity of infection (MOI) of approximately 0.005 PFU/cell with virus strains including AdV5. […] Cytopathology was determined by the addition of CellTiter-Glo® reagent (Promega, Madison, Wis.).

[2] = test system: adenovirus 6 (AdV6); assay: CPE reduction assay, adenovirus 6; type: cell-based, human adenovirus
Method: (§1) Similar experiments were carried out with filociclovir against adenovirus 6, adenovirus 7, and adenovirus 8.

[3] = test system: adenovirus 7 (AdV7); assay: CPE reduction assay, adenovirus 7; type: cell-based, human adenovirus
Method: as §1

[4] = test system: AdV6; assay: Immunofluorescence assay (DBP and hexon staining), AdV6-infected A549 cells; type: cell-based, human adenovirus; settings: 27 hours post-infection
Method: Human A549 cells on glass coverslips in 6-well plates were infected at an MOI of 5 PFU/cell with either AdV5 or AdV6 or were mock-infected. After 1 hour, filociclovir was added to a final concentration of 0, 4, 10, or 40 μM. At 27 hours post-infection, the A549 cells were fixed in paraformaldehyde (3.7% in PBS) and permeabilized with methanol. Cells were stained for the Adenovirus DNA-binding protein and adenovirus hexon. DBP staining will be […] and uniform during early AdV infection (prior to AdV DNA replication). DBP associates with replication centers as the infection progresses. The replication centers are initially small “dots” (each dot results from one incoming AdV genome). The replication centers will expand and “multiply” as DNA replication takes place. The nuclei become enlarged and misshapen as infection progresses. AdV hexon, the most abundant component of the AdV viral capsid, is not expressed until after DNA replication is taking place and is therefore considered to be a “late” AdV protein.

[5] = test system: Human AdV6; assay: Low dose filociclovir against intravenously administered AdV6 in immunosuppressed hamsters (Example 6); settings: for AdV6-induced liver damage, serum transaminase (ALT) / AdV6 replication in the liver: 5 days post challenge; for AdV6 replication in the liver: TCID50
Method: Three dose levels were tested: 1, 3, and 10 mg/kg p.o. q.d.
All hamsters were immunosuppressed using cyclophosphamide (CP) administered intraperitoneally at a dose of 140 mg/kg, and then twice weekly at a dose of 100 mg/kg. Filociclovir in powdered form was suspended in 0.4% carboxymethyl cellulose (Sigma C5678) at 0.1, 0.3, and 1.0 mg/ml and sonicated to visual homogeneity. Filociclovir was made up once weekly, aliquoted into daily portions, and stored at 4° C. Aliquots were allowed to equilibrate to room temperature before dosing.
Hamsters were distributed into 7 groups, 15 hamsters/group (see Table 4), immunosuppressed as described above, and injected i.v. with vehicle (Groups 1-2) or 4×10^10 PFU/kg of AdV6 (Groups 3-7). Groups 1 and 3 received drug vehicle (p.o. q.d.), Groups 2 and 6 received 10 mg/kg filociclovir (p.o. q.d.), Group 4 received 3 mg/kg filociclovir (p.o. q.d.), Group 5 received 1 mg/kg filociclovir (p.o. q.d.), and Group 7 received cidofovir (one dose of 37 mg/kg, followed by 20 mg/kg doses 3 times weekly). For all groups, drug administration started 1 day before challenge, and continued according to the schedule above for the duration of the study.
The body weights and any signs of morbidity of the animals were monitored and recorded daily. At 5 days post challenge, 5 hamsters (designated at the start of the experiment) from each group were sacrificed, and gross pathological observation was performed. Serum and liver were collected and virus burden in liver was determined by TCID50 assay and the serum was analyzed for transaminase levels. The remaining 10 hamsters were sacrificed at 14 days post challenge. Hamsters that became moribund before Day 14 were sacrificed as needed. In addition to the animals judged moribund by observation, we sacrificed all hamsters that lost more than 20% of their original body weight. For all animals, liver tissue was preserved in formalin for histopathological examination.

[6] = test system: AdV6; assay: Delayed treatment with 10 mg/kg filociclovir after AdV6 challenge in immunosuppressed hamsters (Example 7); type: in vivo, Syrian hamsters
Method: Aliquots are allowed to equilibrate to room temperature before dosing.
Hamsters were distributed into 8 groups, 15 hamsters each (Table 5), immunosuppressed as described above, and then injected i.v. with vehicle or 4×10^10 plaque forming units (PFU) of AdV6 per kg. Filociclovir was administered p.o. at 10 mg/kg q.d., starting at one day before, or 1, 2, 3, or 4 days after AdV6 injection.
Body weights and any signs of morbidity in the hamsters were recorded daily. At 7 days post challenge, 5 hamsters from each group (designated at the start of the experiment) were sacrificed, and gross pathological observations were performed.

[7] = test system: adenovirus 19 (AdV19); assay: Efficacy against adenovirus 19 (data not shown)
[8] = test system: adenovirus 37 (AdV37); assay: Efficacy against adenovirus 37 (data not shown)
[9] = 10 mg/kg q.d., listed as filociclovir

Nc1nc2c(ncn2/C=C2/CC2(CO)CO)c(=O)[nH]1 [FCV, 2-amino-9-{(Z)-[2,2-bis(hydroxymethyl)cyclopropylidene]methyl}-3,9-dihydro-6H-purin-6-one]
concentration as low as which is effective to reduce AdV replication ([1]; FIG. 1, AdV5): 0.2 µM
EC50 ([1]; Human mastadenovirus C, AdV5, HFF cells, 384 well CPE, average and SD from five independent experiments, read-out: EC50): 2200 ± 400 nM
CC50/EC50 [2]: 27
EC50 ([2]; Human mastadenovirus C, unit not given in Table 2 (Table 1 in μM)): 3.67 µM
CC50/EC50 [3]: >144
EC50 ([3]; Human mastadenovirus B, unit not given in Table 2 (Table 1 in μM)): 1.04 µM
hexon-positive cells ([4]; AdV6, 4 μM): Some hexon-positive cells
hexon-positive cells ([4]; AdV6, 10 μM): extremely few hexon-positive cells
hexon-positive cells ([4]; AdV6, 40 μM): No hexon-positive cells
mortality ([5]; 1 mg/kg p.o. q.d., p=0.0449): moderate yet significant
AdV6-induced liver damage, serum transaminase (ALT) ([5]; 1 mg/kg q.d., listed as Filociclovir): ineffective
AdV6-induced liver damage, serum transaminase (ALT) ([5]; 1 mg/kg q.d., listed as filociclovir): largely ineffective
body weight loss ([5]; 1 mg/kg, listed as Filociclovir): not efficacious
body weight loss ([5]; 1 mg/kg, listed as filociclovir): unable to mitigate weight loss
mortality ([5]; 3 mg/kg q.d. p.o.): completely prevented mortality
AdV6 replication in the liver ([5]; 3 mg/kg q.d. p.o., listed as filociclovir): suppressed virus replication to an intermediate level; also recorded: inhibits AdV6 replication in the liver
AdV6-induced liver damage, serum transaminase (ALT) ([5]; 3 mg/kg, p=0.0419, listed as Filociclovir): mitigated the pathology
AdV6-induced liver damage, serum transaminase (ALT) ([5]; 3 mg/kg, p=0.0419, listed as filociclovir): moderate yet significant effect
body weight loss ([5]; 3 mg/kg, listed as Filociclovir): moderately efficacious
body weight loss ([5]; 3 mg/kg, listed as filociclovir): partially reversed
mortality ([5]; 10 mg/kg q.d. p.o.): completely prevented mortality
AdV6 replication in the liver [5, 9]: inhibits AdV6 replication in the liver
AdV6-induced liver damage, serum transaminase (ALT) ([5]; 10 mg/kg q.d., listed as Filociclovir): mitigated the pathology
AdV6-induced liver damage, serum transaminase (ALT) [5, 9]: prevented AdV6-induced liver damage
body weight of uninfected hamsters ([5]; 10 mg/kg, uninfected): did not result in body weight loss
body weight loss ([5]; 10 mg/kg, listed as Filociclovir): completely prevented body weight loss
body weight loss ([5]; 10 mg/kg, listed as filociclovir): completely reversed
toxic effects in treated hamsters ([5]; 1, 3, 10 mg/kg p.o. q.d.): No toxic effects were observed
treatment-related deaths ([5]; AdV6+1 mg/kg group (9 in AdV6+Vehicle)): 5
hamsters with mottled liver and enlarged gall bladder ([5]; AdV6+1 mg/kg, Day 5 sacrifice (4 in AdV6+Vehicle)): 3
morbidity and mortality (survival) ([6]; 10 mg/kg p.o. q.d. started day −1, +1, +2, +3 (p=0.0005) or +4 (p=0.0023) vs AdV6+Vehicle, listed as filociclovir): efficacious; also recorded: effective to prevent morbidity and mortality
prevention of pathology caused by intravenous AdV6 infection ([6]; 10 mg/kg p.o. q.d., up to 4 days post-infection): safe and effective
AdV6 replication in the liver ([6]; 10 mg/kg, start 4 days post challenge): inhibits AdV6 replication in the liver
liver pathology, transaminase (ALT) levels ([6]; 10 mg/kg, start up to 4 days post challenge, day +4 p=0.1452): mitigates liver pathology
treat or prevent infection [7]: effective
treat or prevent infection [8]: effective
